Measured values taken from US20260193644A1, “Compositions and Methods For Modulation of Tumor Suppressors and Oncogenes” (FLAGSHIP PIONEERING INNOVATIONS VII, LLC, priority 2022, published 2026).
Several values for one entry are separate records, joined by “and”; a condition that tells them apart may be missing. Identical values can stand only once.

How the values were obtained:
Type in all cases: cell-based
[1] = tested on: HCT-116 cells; experiment: Caspase-Glo 3/7 apoptosis assay, peptide-treated HCT-116 cells; conditions: for peptides inducing significant apoptosis (z-score vs vehicle control): listed = significant
Procedure: (§1) Cell Culture: Tumor cell lines HCT-116 (Colon Cancer Cell line, ATCC) and U2OS (Osteoscarcoma Cell line, ATCC) cells were grown adherently in ATCC-formulated McCoy's 5a medium supplemented with 10% FBS and 1× penicillin-streptomycin at 37° C. (5% CO2). Jurkat cells (acute T-cell leukemia cell line, ATCC) were grown as suspension cultures in ATCC-formulated RPMI-1640 supplemented with 10% FBS and 1× penicillin-streptomycin at 37° C. (5% CO2). HEP-G2 cells (Liver Cancer Cell line, ATCC) cells were grown adherently in ATCC-formulated Eagle's Minimum Essential Medium (EMEM) supplemented with 10% FBS and 1× penicillin-streptomycin at 37° C. (5% CO2).
(§2) Peptide Treatment: Target protein SEQ ID NO: 37997 was synthesized through Fluorenylmethyloxycarbonyl (Fmoc) protection group chemistry using Solid Phase Peptide Synthesis (SPPS). 5 μM of target peptide and control peptides were added to a 96 well plate containing 10,000 cells (100 μL/well). A white-walled 96-well plate adequate for cell culture and compatible with the luminometer was used. (Corning)
(§3) Apoptosis Assay: Following 24 hrs of peptide treatment, an equal volume reconstituted Caspase-Glo® 3/7 assay reagent mixture (Promega) was added to the cells. The contents of wells were gently mixed using a plate shaker at 300-500 rpm for 30 seconds. The plate was then Incubate at room temperature for 3 hours. The treated plates were then read for luminescence on Promega™ GloMax® Plate Reader. A blank reaction that contained caspase-Glo® 3/7 reagent, vehicle and cell culture medium without cells was used to measure background luminescence. The blank reaction values were subtracted from experimental values. A negative control that contained caspase-Glo® 3/7 reagent and vehicle-treated cells in medium was included to determine the basal caspase activity of the cell culture system. Significant difference in apoptosis was determined using ANOVA analysis by comparing cells treated with SEQ ID NO: 37997 peptide to cells treated with an irrelevant control peptide, or vehicle control treated cells.

[2] = tested on: U2OS cells; experiment: Caspase-Glo 3/7 apoptosis assay, peptide-treated U2OS cells; conditions: for z-score compared to vehicle control (peptides inducing significant apoptosis): listed = significant
Procedure: as §1, §2, §3

[3] = tested on: Jurkat cells; experiment: Caspase-Glo 3/7 apoptosis assay, peptide-treated Jurkat cells; conditions: listed = significant
Procedure: as §1, §2, §3

[4] = tested on: HCT116 cells; experiment: WST-1 proliferation assay on HCT116 cells treated with peptide
Procedure: Proliferation: HCT-116 cells were plated in 96 well plate (5,000 cells/well) grown in standard media supplemented with 10% FBS. After 48 hours incubation at 37° C. (5% CO2), the cells are subjected to the WST-1 ([…]) assay. The WST-1 assay (Sigma) is a measure of the metabolic activity (i.e. proliferative rate) of cells. […]

[5] = tested on: U2OS cells; experiment: WST-1 proliferation assay on U2OS cells treated with peptide
[6] = tested on: HCT116 colon cancer cell line; experiment: WST-1 proliferation assay on HCT116 cells stably over-expressing target protein; conditions: 48 hours
Procedure: Over-expression: Stable over-expression tumor cell lines were made by transduction using lentivirus. For virus production, HEK-293T cells were cultured in DMEM with high glucose and GlutaMAX™ medium (ThermoFisher) supplemented with 10% FBS. After 24 h, cells were transfected using lipofectamine 3000 (ThermoFisher) of Lentiviral packaging plasmid mix (CELLECTA) and pGenLenti plasmids (GenScript Inc) containing: 1) no insert, 2) Target Protein encoding sequence, and 3) the AP2A1 protein (positive control for cell proliferation; https://doi.org/10.1038/sj.one.1205216), into HCT116 (Colon cancer cell line; ATCC). A Myc-tag (EQKLISEEDL) was added to the c-terminus of the expressed protein. After 48 hr post-transfection, culture media containing viruses was collected, loaded onto a 10 ml syringe and filtered through a 0.45 μm filter. For cell transduction, HCT116 colorectal cancer cells were seeded in 6-well plates, the virus was added to the cells. After post-transduction, stable cell mixed populations are selected for with puromycin for 14 days. Expression of the Target Protein and controls are confirmed by immunoblot of 50 μg of cell lysate using anti-myc-tag polyclonal antibody (CST).
Proliferation: Polyclonal cell lines that over-express the Target Protein or control, wild-type HCT-116 cells, were plated in 96 well plate (10,000 or 5,000 cells per well) grown in standard media in both low serum (0.1% FBS) and high serum (10% FBS) conditions, respectively. After 48 hours, the cells are subjected to the WST-1 ([…]) assay. The WST-1 assay (Sigma) is a measure of the metabolic activity of group of cells. The higher the metabolic activity the higher the proliferation rate. Significant differences in proliferation are determined by comparing protein-expressing cell lines with a stable cell line of the empty expression vector (control) using ANOVA analysis.

[7] = Low sera (continued), 0.5 uM, head 3 SD
[8] = Low sera (continued), 0.1 uM, head 4 SD
[9] = 5 μM peptide, 24 hrs, vs vehicle control

## SEQ ID NO: 27193: ORF peptide; sequence only in Sequence Listing (LRFKVLLRVLFFMAPVPPQVFGQ; listed as Homo sapiens)
[1]
  peptides inducing significant apoptosis (z-score vs vehicle control): SEQ ID NO: 27193
[2]
  z-score compared to vehicle control (peptides inducing significant apoptosis): SEQ ID NO: 27193
[3]
  peptides inducing significant apoptosis vs vehicle control: SEQ ID NO: 27193
[4]; 0.5 uM, head 3 SD
  proliferation hit score, High sera: 1.079 SD
[4]; 5 uM, head 3 sd
  proliferation hit score, High sera: 0.8327 SD
[4]; [7]
  proliferation hit score, Low sera: 1.081 SD
[4]; Low sera, 5 uM, head 2 SD
  proliferation hit score, Low sera: 0.6897 SD
[5]; 5 uM, head 5 SD
  proliferation hit score, High sera: 15.33 SD
[5]; [7]
  proliferation hit score, Low sera: 1.975 SD
[5]; Low sera, 5 uM, head 2 SD
  proliferation hit score, Low sera: 2.319 SD

## SEQ ID NO: 29485: ORF peptide; sequence only in Sequence Listing (MRSPLSASALLLWSSSVARAFSSPSLLMAVPSPTCSRY; listed as Homo sapiens)
[1]
  peptides inducing significant apoptosis (z-score vs vehicle control): SEQ ID NO: 29485
[3]
  peptides inducing significant apoptosis vs vehicle control: SEQ ID NO: 29485
[5]; [8]
  proliferation hit score, Low sera: 2.026 SD and 1.922 SD
[5]; Low sera, 1 uM, head 5 SD
  proliferation hit score, Low sera: 3.795 SD and 2.322 SD
[5]; Low sera, 10 uM, head 6 SD
  proliferation hit score, Low sera: 5.612 SD and 4.323 SD

## SEQ ID NO: 34296: ORF peptide; sequence only in Sequence Listing (MFFCRNYGSFWFYVLSKMLSFFICLLIFVHLLLLSFLISDWPPPTGSAEHKYSG; listed as Homo sapiens)
[3]
  peptides inducing significant apoptosis vs vehicle control: SEQ ID NO: 34296

## SEQ ID NO: 36828: ORF peptide; sequence only in Sequence Listing (MAIFFFFCIIVSSLPTAELGTENACSTCLLNE; listed as Homo sapiens)
[2]
  z-score compared to vehicle control (peptides inducing significant apoptosis): SEQ ID NO: 36828
[3]
  peptides inducing significant apoptosis vs vehicle control: SEQ ID NO: 36828

## SEQ ID NO: 37997: synthetically produced target protein, secreted tumor suppressor; sequence only in Sequence Listing (MSRLSLSWESLTNAIWPLDLQDIKGYLPNPLPQRVNLRKQILSISKEPN; listed as Homo sapiens)
[1]; [9]
  basal apoptosis levels: increase in basal apoptosis levels
[2]; [9]
  basal apoptosis levels: increase in basal apoptosis levels
[4]; 10 μM, 10% serum, 48 hours
  proliferation (WST-1) vs irrelevant peptide or untreated cells: significantly decreases proliferation
[4]; 0.1 uM, head 3 SD
  proliferation hit score, High sera: −3.114 SD
[4]; 1 uM, head 2 SD
  proliferation hit score, High sera: −5.8 SD
[4]; 10 uM, head 4 SD
  proliferation hit score, High sera: −11.51 SD
[4]; Low sera, 1 uM, head 3 SD
  proliferation hit score, Low sera: −3.015 SD
[4]; Low sera, 10 uM, head 3 SD
  proliferation hit score, Low sera: −6.915 SD
[5]; 1 uM, head 5 SD
  proliferation hit score, High sera: −5.9599 SD
[5]; 10 uM, head 8 SD
  proliferation hit score, High sera: −13.23 SD
[5]; Low sera (continued), 0.1 uM, head 2 SD
  proliferation hit score, Low sera: −2.359 SD
[5]; [8]
  proliferation hit score, Low sera: 1.922 SD
[5]; Low sera, 1 uM, head 5 SD
  proliferation hit score, Low sera: 0.3203 SD
[5]; Low sera, 10 uM, head 6 SD
  proliferation hit score, Low sera: −16.09 SD

B1: SEQ ID NO: 27000: ORF peptide; sequence only in Sequence Listing (peptide, listed as Homo sapiens)
chain: MNLNPRLRLQVISFHPHPKALAVTLLPALTQSLCLCMASCVYSGPKGFLFLFFPQTAQEKHMKNIT
[1]
  peptides inducing significant apoptosis (z-score vs vehicle control): SEQ ID NO: 27000
[2]
  z-score compared to vehicle control (peptides inducing significant apoptosis): SEQ ID NO: 27000
[3]
  peptides inducing significant apoptosis vs vehicle control: SEQ ID NO: 27000
[5]; [8]
  proliferation hit score, Low sera: 7.758 SD and 7.542 SD
[5]; Low sera, 1 uM, head 5 SD
  proliferation hit score, Low sera: 5.685 SD and 9.031 SD

B2: SEQ ID NO: 27301: target protein over-expressed (Myc-tagged) in stable HCT116 cell line; oncogene (protein, listed as Homo sapiens)
chain: MVEKSHPSSLPTLPQPLNHCPETYMLLSAAPSGASQLLSTLTLFLKKHRMDIRTISLRMLLSHTGKLAL
modifications: Myc tag
notes: oncogene
[6]; high serum (10% FBS)
  proliferation (WST-1) on over-expression vs Empty Vector: significantly increases proliferation
[6]; low serum (0.1% FBS)
  proliferation (WST-1) on over-expression vs Empty Vector: significantly increases proliferation
